# Source: US9006433B2, “Substituted pyrimidines” (Merck Sharp & Dohme Corp., priority 2010, dated 2015)
# pIC50: −log10 of the molar value.
# Molecular target: T1, PHD2 (Homo sapiens, UniProt Q9GZT9)
# T1 construct: FLAG-tagged full length PHD2 expressed in and purified from baculovirus-infected Sf9 cells; FLAG; made in house; host or cells: baculovirus-infected Sf9 cells
# Assay: PHD2 inhibition assay (time resolved fluorescence, HIF-1α peptide hydroxylation / VHL complex detection)
# Format: biochemical
# Settings: FLAG-tagged full length PHD2; 0.2 μM 2-oxoglutarate, 0.5 μM HIF-1α peptide
# Description: To each well of a 96-well plate was added 1 μL of test compound in DMSO and 20 μl of assay buffer (50 mM Iris pH 7.4/0.01% Tween-20/0.1 mg/ml bovine serum albumin/10 μM ferrous sulfate/1 mM sodium ascorbate/20 μg/ml catalase) containing 0.15 μg/ml FLAG-tagged full length PHD2 expressed in and purified from baculovirus-infected Sf9 cells. After a 30 min preincubation at room temperature, the enzymatic reactions were initiated by the addition of […] of substrates (final concentrations of 0.2 μM 2-oxoglutarate and 0.5 μM HIF-1α peptide biotinyl-DLDLEMLAPYIPMDDDFQL (SEQ ID NO:1)). After 2 hr at room temperature, the reactions were terminated and signals were developed by the addition of a 25 μL quench/detection mix to a final concentration of 1 mM ortho-phenanthroline, 0.1 mM EDTA, 0.5 nM anti-(His)6 LANCE reagent (Perkin-Elmer Life Sciences), 100 nM AF647-labeled streptavidin (Invitrogen), and 2 μg/ml (His)-6-VHL complex (S. Tan(2001) Protein Expr. Purif. 21, 224-234). The ratio of time resolved fluorescence signals at 665 and 620 nm was determined, and percent inhibition was calculated relative to an uninhibited control sample run in parallel.
# T1 sequence (Q9GZT9 whole entry, species assumed): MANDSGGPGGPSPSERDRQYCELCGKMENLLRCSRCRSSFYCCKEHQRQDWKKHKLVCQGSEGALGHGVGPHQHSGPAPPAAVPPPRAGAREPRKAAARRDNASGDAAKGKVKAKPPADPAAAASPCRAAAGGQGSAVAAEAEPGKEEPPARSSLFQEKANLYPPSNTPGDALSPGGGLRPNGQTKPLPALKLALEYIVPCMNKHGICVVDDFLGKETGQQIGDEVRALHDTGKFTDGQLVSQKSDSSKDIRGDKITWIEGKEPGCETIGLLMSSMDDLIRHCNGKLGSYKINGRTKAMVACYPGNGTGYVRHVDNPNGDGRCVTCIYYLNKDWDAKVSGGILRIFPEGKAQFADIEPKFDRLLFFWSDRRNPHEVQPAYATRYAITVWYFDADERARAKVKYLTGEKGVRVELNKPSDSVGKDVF
row,Compound,pIC50
1,"COc1ccc(OC(=O)Nc2cnc(-n3cccn3)nc2O)cc1 [Compound 5-14, 4-methoxyphenyl 4-hydroxy-2-(1H-pyrazol-1-yl)pyrimidin-5-ylcarbamate]",7.00 to 7.70
2,"O=C(Nc1cnc(-n2cccn2)nc1O)c1cccc(C(F)(F)F)c1 [Compound 3-4, 3-(trifluoromethyl)-N-(4-hydroxy-2-(1H-pyrazol-1-yl)pyrimidin-5-yl)benzamide]",7.70 to 9.30
3,"CS(=O)(=O)c1cccc(C(=O)Nc2cnc(-n3cccn3)nc2O)c1 [Compound 3-15, N-(4-hydroxy-2-(1H-pyrazol-1-yl)pyrimidin-5-yl)-3-(methylsulfonyl)benzamide]",7.00 to 7.70
4,"N#Cc1cccc(C(=O)Nc2cnc(-n3cccn3)nc2O)c1 [Compound 3-8, 3-cyano-N-(4-hydroxy-2-(1H-pyrazol-1-yl)pyrimidin-5-yl)benzamide]",7.00 to 7.70

# Second part, the molecule after the results:
row,pIC50,Compound
1,5.00 to 7.00,"O=C(Cc1cnc(-n2cccn2)nc1O)NC1CCCCC1 [Compound 12-2, N-cyclohexyl-2-(4-hydroxy-2-(1H-pyrazol-1-yl)pyrimidin-5-yl)acetamide]"
2,7.00 to 7.70,"O=C(Nc1cnc(-n2cccn2)nc1O)NC1CCCCC1 [Compound 5-4, 1-cyclohexyl-3-(4-hydroxy-2-(1H-pyrazol-1-yl)pyrimidin-5-yl)urea]"
